Source: patent publication US20240342177A1, “METHODS OF TREATING BRAIN CANCER” (priority 2021, published 2024)

Experiments:
RA055 (DMG) = assay: In vitro efficacy, dose response in DMG neurospheres RA055
Protocol: (§1) Assessment of in vitro activity of the composition used in the methods of the present disclosure was undertaken in patient-derived Diffuse Midline Glioma (DMG) neurospheres.
(§2) In particular, activity of the composition against human DMG cells was compared to that of 5-FU, a combination of 5-FU and FA, or a media control.
(§3) The composition used in the methods of the present disclosure was tested at a 5-FU to FA (Leucovorin) ratio of 15:1 (termed ‘Deflexifol’), and compared to 5-FU as a single agent (‘5-FU’); FA (Leucovorin) as a single agent (‘Leucovorin’); or a combination of 5-FU and FA (Leucovorin) (‘5-FU+Leucovorin’).
(§4) The tested concentrations were selected with reference to the clinical maximum tolerated plasma concentration of 5-FU (530 μM), as detailed in Table 5.
(§5) Screening was conducted in a 96-well format, with N=4 curves, using: • three different DMG cell lines: P002306, DIPG-7 and RA055 • one ependymoma culture and • one set of healthy astrocytes (control model system).

DIPG-7 (DMG) = assay: In vitro efficacy, dose response in DMG neurospheres DIPG-7; conditions: Homo sapiens
Protocol: as §1, §2, §3, §4, §5

[1] = cited from earlier work
[2] = tested on: U-87-MG human glioblastoma cell line; assay: U-87-MG cell proliferation (Incucyte confluency); type: cell-based; conditions: 72 hours with drug, 5-FU concentration, read-out: IC50, inhibiting cell proliferation
Protocol: U-87-MG cells are maintained in DMEM (high glucose)+10% FCS
• 96-well 2D format (triplicate wells per drug concentration). • Cells seeded at 10,000 cells/well>24 hours incubation. • Drugs added 24 hours later and cells incubated a further 72 hours. • Cells imaged every 6 hours using Incucyte ZOOM for cell proliferation (confluency measurement) and evidence of cell death.

P000302 (Healthy cells) = assay: In vitro dose response in healthy astrocytes (control model system)
Protocol: as §3, §5

P002306 (DMG) = assay: In vitro efficacy, dose response in DMG neurospheres P002306
Protocol: as §1, §2, §3, §4, §5

P008480 (Ependymoma) = assay: In vitro efficacy, dose response in ependymoma culture
Protocol: as §3, §5

In the case of `O=c1[nH]cc(F)c(=O)[nH]1` [5-FU, 5-fluoro-2,4 (1H,3H)-pyrimidinedione], the IC50 (RA055 (DMG); Homo sapiens) is reported as roughly 200 µM, the “AUC (dose response)” value (RA055 (DMG); RA055 (DMG)) is reported as “AUC: 332.6” and the IC50 (DIPG-7 (DMG)) is reported as roughly 22.3 µM. For the same compound, the “clinical maximum tolerated plasma concentration” value ([1]; human, in vivo) was 530 µM, the “human tolerability of i.v.b. administration” value ([1]; i.v.b.) was “approximately 500 mg/mg^2” and the IC50 [2] was 120 µM. For the same compound, the IC50 (P000302 (Healthy cells); Homo sapiens, Astrocyte) was roughly 500 µM, the “AUC (dose response)” value (P000302 (Healthy cells); P000302 (Healthy cells)) was “AUC: 294.3” and the IC50 (P002306 (DMG); Homo sapiens) was roughly 1.9 µM. For the same compound, the “AUC (dose response)” value (P002306 (DMG); P002306 (DMG)) was “AUC: 171.4”, the IC50 (P008480 (Ependymoma); Homo sapiens) was greater than 500 µM and the “AUC (dose response)” value (P008480 (Ependymoma); P008480 (Ependymoma)) was “AUC: 373.2”.
